Biological target: T1, human M4 muscarinic acetylcholine receptor (Homo sapiens, UniProt P08173)
T1 construct: expressed in transfected cells; host or cells: CHO-K1
T1 sequence (P08173 1-479): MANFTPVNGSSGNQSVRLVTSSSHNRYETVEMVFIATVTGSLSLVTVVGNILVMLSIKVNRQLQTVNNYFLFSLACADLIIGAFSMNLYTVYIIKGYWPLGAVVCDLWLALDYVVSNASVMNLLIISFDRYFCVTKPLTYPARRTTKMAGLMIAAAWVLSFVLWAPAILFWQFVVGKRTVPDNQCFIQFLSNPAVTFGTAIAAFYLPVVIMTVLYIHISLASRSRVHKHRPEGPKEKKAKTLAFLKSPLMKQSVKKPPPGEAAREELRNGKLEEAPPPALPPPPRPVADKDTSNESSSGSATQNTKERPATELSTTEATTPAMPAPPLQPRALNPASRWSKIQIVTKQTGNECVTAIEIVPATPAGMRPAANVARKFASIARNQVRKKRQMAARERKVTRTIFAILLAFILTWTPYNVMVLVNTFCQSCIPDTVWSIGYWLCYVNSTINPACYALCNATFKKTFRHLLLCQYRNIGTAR
Assay: human FLIPR-based M4 PAM assay (CHO-K1 cells with human M4 receptor and Gaqi5, calcium dye fluorescence)
Type: cell-based
Details: inflection point (IP) of dose response curve, acetylcholine added at 20% of maximum response, read-out: M4 FLIPPR Hu IP
Procedure, shortened: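 CHO-K1 cells stably expressing human M4 with chimeric Gaqi5, calcium-dye loaded ~1 h at 37° C; compound added at increasing concentrations 4 min before acetylcholine at an EC20 concentration (sometimes a further EC70 addition).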

Q: For `Cc1nc2cc(-c3nc(C#N)ccc3-c3cnn(CC4(F)CCCC4)c3)ccc2n1C` [Example 59, 6-(1,2-dimethyl-1H-benzo[d]imidazol-5-yl)-5-(1-((1-fluorocyclopentyl)methyl)-1H-pyrazol-4-yl)picolinonitrile], which EC50 is on record?
A: Its EC50 is 43 nM.

Q: Which EC50 does the source give for `Cc1nc2ccc(-c3nc(C#N)ccc3-c3cnn(CC4(F)CCCC4)c3)cn2n1` [Example 60, 5-(1-((1-fluorocyclopentyl)methyl)-1H-pyrazol-4-yl)-6-(2-methyl-[1,2,4]triazolo[1,5-a]pyridin-6-yl)picolinonitrile] here?
A: The EC50 was 110 nM.

Q: For `Cc1nc2cc(-c3nc(C#N)ccc3-c3cnn(CC4(F)CCCC4)c3)ccn2n1` [Example 61, 5-(1-((1-fluorocyclopentyl)methyl)-1H-pyrazol-4-yl)-6-(2-methyl-[1,2,4]triazolo[1,5-a]pyridin-7-yl)picolinonitrile], which EC50 is on record?
A: The EC50 was 37 nM.

Q: How did the EC50 turn out when `N#Cc1ccc(-c2cnn(CC3(F)CCCC3)c2)c(-c2ccc3conc3c2)n1` [Example 62, 6-(benzo[c]isoxazol-6-yl)-5-(1-((1-fluorocyclopentyl)methyl)-1H-pyrazol-4-yl)picolinonitrile] was run?
A: The EC50 was 62 nM.

Q: Which EC50 does the source give for `Cc1nc2cc(-c3nc(C#N)ccc3-c3cnn(CC4(F)CCCC4)c3)cnc2n1C` [Example 63, 6-(2,3-dimethyl-3H-imidazo[4,5-b]pyridin-6-yl)-5-(1-((1-fluorocyclopentyl)methyl)-1H-pyrazol-4-yl)picolinonitrile] here?
A: The EC50 was 63 nM.

Q: With `COc1cc2ccc(-c3nc(C#N)ccc3-c3cnn(CC4(F)CCCC4)c3)cn2n1` [Example 64, 5-(1-((1-fluorocyclopentyl)methyl)-1H-pyrazol-4-yl)-6-(2-methoxypyrazolo[1,5-a]pyridin-6-yl)picolinonitrile] as the molecule, how does the EC50 read?
A: The EC50 was 22 nM.

Q: How did the EC50 turn out when `CCc1nc2cc(-c3nc(C#N)ccc3-c3cnn(CC4(F)CCCC4)c3)ccn2n1` [Example 65, 6-(2-ethyl-[1,2,4]triazolo[1,5-a]pyridin-7-yl)-5-(1-((1-fluorocyclopentyl)methyl)-1H-pyrazol-4-yl)picolinonitrile] was run?
A: The EC50 was 28 nM.

Q: How did the EC50 turn out when `N#Cc1ccc(-c2cnn(CC3(F)CCCC3)c2)c(-c2ccn3nc(CO)nc3c2)n1` [Example 66, 5-(1-((1-fluorocyclopentyl)methyl)-1H-pyrazol-4-yl)-6-(2-(hydroxymethyl)-[1,2,4]triazolo[1,5-a]pyridin-7-yl)picolinonitrile] was run?
A: The EC50 was 89 nM.

Q: `COc1cc2ccc(-c3nc(C#N)ccc3-c3cnn(C[C@H]4CC[C@H](F)C4)c3)cc2nn1` [Example 67, 5-(1-(((1S,3S)-3-fluorocyclopentyl)methyl)-1H-pyrazol-4-yl)-6-(3-methoxycinnolin-7-yl)picolinonitrile] was tested. Which EC50 did it give?
A: Its EC50 is 64 nM.

Q: For `N#Cc1ccc(-c2cnn(C[C@H]3CC[C@H](F)C3)c2)c(-c2ccc3cccnc3c2)n1` [Example 68, 5-(1-(((1S,3S)-3-fluorocyclopentyl)methyl)-1H-pyrazol-4-yl)-6-(quinolin-7-yl)picolinonitrile], which EC50 is on record?
A: Its EC50 is 38 nM.

Q: For `Cc1cn2ccc(-c3nc(C#N)ccc3-c3cnn(C[C@H]4CC[C@H](F)C4)c3)cc2n1` [Example 69, 5-(1-(((1S,3S)-3-fluorocyclopentyl)methyl)-1H-pyrazol-4-yl)-6-(2-methylimidazo[1,2-a]pyridin-7-yl)picolinonitrile], which EC50 is on record?
A: Its EC50 is 25 nM.

Q: With `Cn1cnc2cc(-c3nc(C#N)ccc3-c3cnn(C[C@@H]4CC[C@@H](F)C4)c3)ccc21` [Example 70, 5-(1-(((1R,3R)-3-fluorocyclopentyl)methyl)-1H-pyrazol-4-yl)-6-(1-methyl-1H-benzo[d]imidazol-5-yl)picolinonitrile] as the molecule, how does the EC50 read?
A: The EC50 was 49 nM.

Q: How did the EC50 turn out when `N#Cc1ccc(-c2cnn(CC3C[C@H](F)[C@@H](F)C3)c2)c(-c2ccn3ccnc3c2)n1` [Example 71, 5-(1-(((3S,4S)-3,4-difluorocyclopentyl)methyl)-1H-pyrazol-4-yl)-6-(imidazo[1,2-a]pyridin-7-yl)picolinonitrile] was run?
A: Its EC50 is 26 nM.

Q: For `Cn1cnc2cc(-c3nc(C#N)ccc3-c3cnn(CC4C[C@H](F)[C@@H](F)C4)c3)ccc21` [Example 72, 5-(1-(((3S,4S)-3,4-difluorocyclopentyl)methyl)-1H-pyrazol-4-yl)-6-(1-methyl-1H-benzo[d]imidazol-5-yl)picolinonitrile], which EC50 is on record?
A: Its EC50 is 41 nM.

Q: How did the EC50 turn out when `CC1(Cn2cc(-c3ccc(C#N)nc3-c3cnc4c(c3)C(=O)OC4)cn2)CCCC1` [Example 73, 5-(1-((1-methylcyclopentyl)methyl)-1H-pyrazol-4-yl)-6-(5-oxo-5,7-dihydrofuro [3,4-b]pyridin-3-yl) picolinonitrile] was run?
A: Its EC50 is 41 nM.

Q: For `CC1(Cn2cc(-c3ccc(C#N)nc3-c3ccn4c(F)cnc4c3)cn2)CCCC1` [Example 74, 6-(3-fluoroimidazo[1,2-a]pyridin-7-yl)-5-(1-((1-methylcyclopentyl)methyl)-1H-pyrazol-4-yl)picolinonitrile], which EC50 is on record?
A: The EC50 was 58 nM.

Q: With `CC1(Cn2cc(-c3ccc(C#N)nc3-c3ccn4ncnc4c3)cn2)CCCC1` [Example 75, 6-([1,2,4]triazolo[1,5-a]pyridin-7-yl)-5-(1-((1-methylcyclopentyl)methyl)-1H-pyrazol-4-yl)picolinonitrile] as the molecule, how does the EC50 read?
A: Its EC50 is 31 nM.

Q: Which EC50 does the source give for `CC1(Cn2cc(-c3ccc(C#N)nc3-c3ccn4cc(C(F)F)nc4c3)cn2)CCCC1` [Example 76, 6-(2-(difluoromethyl)imidazo [1,2-a]pyridin-7-yl)-5-(1-((1-methylcyclopentyl)methyl)-1H-pyrazol-4-yl)picolinonitrile] here?
A: The EC50 was 23 nM.

Q: `CC1(Cn2cc(-c3ccc(C#N)nc3-c3ccn4cncc4c3)cn2)CCCC1` [Example 77, 6-(imidazo[1,5-a]pyridin-7-yl)-5-(1-((1-methylcyclopentyl)methyl)-1H-pyrazol-4-yl)picolinonitrile] was tested. Which EC50 did it give?
A: Its EC50 is 66 nM.

Q: Which EC50 does the source give for `CC1(Cn2cc(-c3ccc(C#N)nc3-c3ccn4nc(CF)nc4c3)cn2)CCCC1` [Example 78, 6-(2-(fluoromethyl)-[1,2,4]triazolo[1,5-a]pyridin-7-yl)-5-(1-((1-methylcyclopentyl)methyl)-1H-pyrazol-4-yl)picolinonitrile] here?
A: Its EC50 is 29 nM.

Q: How did the EC50 turn out when `CC1(Cn2cc(-c3ccc(C#N)nc3-c3ccn4nccc4c3)cn2)CCCC1` [Example 79, 5-(1-((1-methylcyclopentyl)methyl)-1H-pyrazol-4-yl)-6-(pyrazolo[1,5-a]pyridin-5-yl) picolinonitrile] was run?
A: The EC50 was 80 nM.

Q: For `Cc1nc2cc(-c3nc(C#N)ccc3-c3cnn(CC4(C)CCCC4)c3)cnc2o1` [Example 80, 5-(1-((1-methylcyclopentyl)methyl)-1H-pyrazol-4-yl)-6-(2-methyloxazolo[5,4-b]pyridin-6-yl)picolinonitrile], which EC50 is on record?
A: The EC50 was 65 nM.

Q: For `CC1(Cn2ncc(-c3ccc(C#N)nc3-c3ccn4ccnc4c3)c2Cl)CCCC1` [Example 81, 5-(5-chloro-1-((1-methylcyclopentyl)methyl)-1H-pyrazol-4-yl)-6-(imidazo[1,2-a]pyridin-7-yl)picolinonitrile], which EC50 is on record?
A: The EC50 was 82 nM.

Q: For `CC1(Cn2cc(-c3ccc(C#N)nc3-c3ccn4cc(CO)nc4c3)cn2)CCCC1` [Example 82, 6-(2-(hydroxymethyl)imidazo [1,2-a]pyridin-7-yl)-5-(1-((1-methylcyclopentyl)methyl)-1H-pyrazol-4-yl)picolinonitrile], which EC50 is on record?
A: The EC50 was 20 nM.

Q: With `Cc1cn2ccc(-c3nc(C#N)ccc3-c3cnn(CC4C[C@@H](F)[C@H](F)C4)c3)cc2n1` [Example 83, 5-(1-(((3R,4R)-3,4-difluorocyclopentyl)methyl)-1H-pyrazol-4-yl)-6-(2-methylimidazo[1,2-a]pyridin-7-yl)picolinonitrile] as the molecule, how does the EC50 read?
A: The EC50 was 26 nM.

Q: With `N#Cc1ccc(-c2cnn(CC3C[C@@H](F)[C@H](F)C3)c2)c(-c2ccc3cccnc3c2)n1` [Example 84, 5-(1-(((3R,4R)-3,4-difluorocyclopentyl)methyl)-1H-pyrazol-4-yl)-6-(quinolin-7-yl)picolinonitrile] as the molecule, how does the EC50 read?
A: The EC50 was 33 nM.

Q: With `Cn1cnc2cc(-c3nc(C#N)c(F)cc3-c3cnn(CC4(C)CCCC4)c3)cnc21` [Example 85, 3-fluoro-6-(3-methyl-3H-imidazo[4,5-b]pyridin-6-yl)-5-(1-((1-methylcyclopentyl)methyl)-1H-pyrazol-4-yl)picolinonitrile] as the molecule, how does the EC50 read?
A: The EC50 was 37 nM.

Q: Which EC50 does the source give for `Cn1cnc2cc(-c3nc(C#N)c(F)cc3-c3cnn(CC4(C)CCCC4)c3)ccc21` [Example 86, 3-fluoro-6-(1-methyl-1H-benzo[d]imidazol-5-yl)-5-(1-((1-methylcyclopentyl)methyl)-1H-pyrazol-4-yl)picolinonitrile] here?
A: Its EC50 is 18 nM.

Q: With `CC1(Cn2cc(-c3cc(F)c(C#N)nc3-c3ccn4ccnc4c3)cn2)CCCC1` [Example 87, 3-fluoro-6-(imidazo[1,2-a]pyridin-7-yl)-5-(1-((1-methylcyclopentyl)methyl)-1H-pyrazol-4-yl)picolinonitrile] as the molecule, how does the EC50 read?
A: Its EC50 is 11 nM.

Q: Which EC50 does the source give for `Cc1cn2ccc(-c3nc(C#N)c(F)cc3-c3cnn(CC4(C)CCCC4)c3)cc2n1` [Example 88, 3-fluoro-5-(1-((1-methylcyclopentyl)methyl)-1H-pyrazol-4-yl)-6-(2-methylimidazo [1,2-a]pyridin-7-yl)picolinonitrile] here?
A: Its EC50 is 24 nM.

Q: For `Cn1cc2ccc(-c3nc(C#N)c(F)cc3-c3cnn(CC4(F)CCCC4)c3)cc2n1` [Example 89, 3-fluoro-5-(1-((1-fluorocyclopentyl)methyl)-1H-pyrazol-4-yl)-6-(2-methyl-2H-indazol-6-yl) picolinonitrile], which EC50 is on record?
A: The EC50 was 67 nM.
